Results: patent US12162881B2, “Forms and compositions of inhibitors of JAK2” (Ajax Therapeutics, Inc., priority 2021, dated 2024)

Assays:
[1] = Drying experiments of solvated Compound 1 materials (vacuum oven, XRPD); assay type: physicochemical; conditions: vac., 1 d
Method: Drying experiments: Damp and solvated Compound 1 materials were placed in vacuum ovens set to ambient temperature or 80° C. for 1 day. Dried solids were analyzed by XRPD.

[2] = biological target: T1, JAK2 (JH1domain-catalytic, Y1007F,Y1008F) kinase (Homo sapiens, UniProt O60674, Y1007F/Y1008F); assay: JAK2 Binding Assay; conditions: Compound 1 as prepared by Example 1
T1 construct: JAK2 (JH1domain-catalytic, Y1007F,Y1008F) kinase was expressed as N-terminal fusion; made in house; host or cells: transiently transfected HEK293 cells
T1 sequence (O60674 849-1124 Y1007F/Y1008F limits assumed): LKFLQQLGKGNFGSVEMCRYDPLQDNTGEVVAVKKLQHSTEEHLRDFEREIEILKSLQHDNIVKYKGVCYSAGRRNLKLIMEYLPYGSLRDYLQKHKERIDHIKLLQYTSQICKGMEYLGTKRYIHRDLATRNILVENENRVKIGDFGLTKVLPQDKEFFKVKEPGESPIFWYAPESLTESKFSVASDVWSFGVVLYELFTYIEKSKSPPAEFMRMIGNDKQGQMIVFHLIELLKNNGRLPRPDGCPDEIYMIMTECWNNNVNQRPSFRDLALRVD
Method: JAK2 (JH1domain-catalytic, Y1007F,Y1008F) kinase was expressed as N-terminal fusion to the DNA binding domain of NFkB in transiently transfected HEK293 cells and subsequently tagged with DNA for qPCR detection. Streptavidin-coated magnetic beads were treated with biotinylated small molecule ligands for 30 minutes at room temperature to generate affinity resins for kinase assays. The liganded beads were blocked with excess biotin and washed with blocking buffer (SeaBlock (Pierce), 1% BSA, 0.05% Tween 20, 1 mmol/L DTT) to remove unbound ligand and to reduce nonspecific phage binding. Binding reactions were assembled by combining kinases, liganded affinity beads, and test compounds in 1× binding buffer (1×PBS, 0.05% Tween 20, 0.1% BSA, 1 mmol/L DTT). Test compound was prepared as 111× stocks in 100% DMSO and directly diluted into the assay wells. All reactions were performed in polypropylene 384-well plates in a final volume of 0.02 mL. The assay plates were incubated at room temperature with shaking for 1 hour and the affinity beads were washed with wash buffer (1×PBS, 0.05% Tween 20). The beads were then re-suspended in elution buffer (1×PBS, 0.05% Tween 20, 0.5 μmol/L non-biotinylated affinity ligand) and incubated at room temperature with shaking for 30 minutes. The kinase concentration in the eluate was measured by qPCR.

[3] = Relative humidity jar experiments (XRPD); assay type: physicochemical
Method: Relative humidify jar experiments: Solid Compound 1 was placed in relative humidity jars containing saturated solutions of various salts to maintain a desired relative humidity level at 25° C. One sample of Compound 1 was placed in a jar containing P205 in an effort to maintain 0% RH.

[4] = Variable relative humidity XRPD (VRH-XRPD); assay type: physicochemical
Method: XRPD patterns were collected with a PANalytical X'Pert PRO MPD diffractometer using an incident beam of Cu Kα radiation produced using a long, fine-focus source and a nickel filter. The diffractometer was configured using the symmetric Bragg-Brentano geometry. Data were collected and analyzed using Data Collector software v. 5.5. Prior to the analysis, a silicon specimen (NIST SRM 640f) was analyzed to verify the observed position of the Si 111 peak is consistent with the NIST-certified position. A specimen of the sample was packed in a nickel-coated copper well. Antiscatter slits (SS) were used to minimize the background generated by air. Soller slits for the incident and diffracted beams were used to minimize broadening from axial divergence. Diffraction patterns were collected using a scanning position-sensitive detector (X'Celerator) located 240 mm from the sample and Data Collector software v. 5.5.
An Anton Paar temperature-humidity chamber (THC) was used while collecting in-situ XRPD patterns as a function of humidity. The temperature of the specimen was changed with a Peltier thermoelectric device located directly under the specimen holder and monitored with a platinum-100 resistance sensor located in the specimen holder. The thermoelectric device was powered and controlled by an Anton Paar TCU 50 interfaced with Data Collector. The humidity was generated with an RH-200 manufactured by VTI Inc. and carried by a flow of nitrogen gas. The humidity was monitored by a HygroClip sensor manufactured by Rotronic located next to the specimen inside the THC.
VRH-XRPD analysis was conducted to help determine water activity boundary for the solid-state conversion between hydrated Form A and anhydrous Form B. This method was utilized due the observed high tendency of Compound 1 to form solvates, which precluded the use of solvent-mediated approach.
Overall, two VRH-XRPD experiments were conducted to qualitatively evaluate RH conditions leading to predominance of Form A over Form B and vice versa. The kinetic component was not assessed.
The first VRH-XRPD experiment was conducted with a goal of observing dehydration of hydrated Form A. An initial XRPD scan was, therefore, acquired on Form A equilibrated in-situ at ambient RH for 45 minutes, which at the time of the analysis was ˜30%. The XRPD pattern from this scan was consistent with Form A (FIG. 39, top).
XRPD patterns were collected throughout the course of the experiment, each with a 10 minute scan.
XRPD patterns were collected throughout the course of the experiment, each with a 10 minute scan. The XRPD patterns remained Form B until the RH reached approximately 60% RH, where Form A became the primary phase with some Form B remaining (FIG. 41, top two spectra). Further decrease of Form B was observed through the remainder of the 60% RH hold at which point the experiment ended (FIG. 41, bottom two spectra). Complete conversion to Form A from Form B was not observed under these conditions.

[5] = Disproportionation of Compound 2 (HCl salt) stirred in water; assay type: physicochemical; conditions: Form A obtained by disproportionation of Compound 2 in water (Example 11)
Method: An exemplary procedure for preparing Compound 1 Form A is as follows: Compound 1 Lot II (459.1 mg) was slurried in THF (4 mL). Concentrated HCl (154 μL, 2 equiv.) was added to the slurry. The off-white slurry rapidly changed to a yellow slurry. The slurry was stirred at ambient temperature for 1 day. Solids were collected by vacuum filtration and briefly dried under vacuum. The yellow material, assumed to be an HCl salt, was collected by vacuum filtration. The material (543.2 mg) was then suspended in H2O (5 mL) and stirred at ambient temperature for 2 days. Pale yellow solids were collected by vacuum filtration but appeared to still contain some HCl salt by XRPD. Solids were re-slurried in H2O (1 mL) at ambient temperature for additional 3 days. The off-white solids were collected by vacuum filtration and dried on filter until solids were no longer visibly damp.

SMILES: CC(=O)Nc1cc(Oc2cnc3nc(Nc4cc(C(F)(F)F)cn(C)c4=O)n(C)c3c2C#N)ccn1 [Compound 1 Form G, N-(4-((7-cyano-1-methyl-2-((1-methyl-2-oxo-5-(trifluoromethyl)-1,2-dihydropyridin-3-yl)amino)-1H-imidazo[4,5-b]pyridin-6-yl)oxy)pyridin-2-yl)acetamide]
- XRPD Result after drying ([1]; RT, listed as Form G): Form B + peaks (some disorder)

SMILES: CC(=O)Nc1cc(Oc2cnc3nc(Nc4cc(C(F)(F)F)cn(C)c4=O)n(C)c3c2C#N)ccn1 [Compound 1, N-(4-((7-cyano-1-methyl-2-((1-methyl-2-oxo-5-(trifluoromethyl)-1,2-dihydropyridin-3-yl)amino)-1H-imidazo[4,5-b]pyridin-6-yl)oxy)pyridin-2-yl)acetamide]
- Kd [2]: < 10 nM
- XRPD Results after RH stress ([3]; 23% RH, RT, 6 d): B + minor A
- XRPD Results after RH stress ([3]; 43% RH, RT, 6 d): A + B
- XRPD Results after RH stress ([3]; 54% RH, RT, 6 d): A + B
- XRPD Results after RH stress ([3]; P2O5 jar, 0% RH RT, 12 d): B + peaks

SMILES: CC(=O)Nc1cc(Oc2cnc3nc(Nc4cc(C(F)(F)F)cn(C)c4=O)n(C)c3c2C#N)ccn1 [Compound 1 Form A, N-(4-((7-cyano-1-methyl-2-((1-methyl-2-oxo-5-(trifluoromethyl)-1,2-dihydropyridin-3-yl)amino)-1H-imidazo[4,5-b]pyridin-6-yl)oxy)pyridin-2-yl)acetamide]
- RH at which a small amount of Form B became visible ([4]; Experiment 1, RH incrementally decreased from ~85%): approximately 21 % RH
- RH at which Form A was no longer visible ([4]; Experiment 1, decreasing RH): ~5 % RH
- RH at which Form B became the predominant phase ([4]; Experiment 1, decreasing RH): 11 % RH
- RH at which dehydration is expected to begin ([4]; VRH-XRPD and DVS data combined): 20 % RH
- Form change on hold under nitrogen stream ([4]; overnight (17 h) hold under nitrogen stream (~0% RH)): converted to Form B
- Stability relative to Compound 2 [5]: superior stability

SMILES: CC(=O)Nc1cc(Oc2cnc3nc(Nc4cc(C(F)(F)F)cn(C)c4=O)n(C)c3c2C#N)ccn1 [Compound 1 Form D, N-(4-((7-cyano-1-methyl-2-((1-methyl-2-oxo-5-(trifluoromethyl)-1,2-dihydropyridin-3-yl)amino)-1H-imidazo[4,5-b]pyridin-6-yl)oxy)pyridin-2-yl)acetamide]
- XRPD Result after drying ([1]; 80° C.): Form D + peaks (some disorder)
- XRPD Result after drying ([1]; RT, listed as Form D): Form D^a

SMILES: CC(=O)Nc1cc(Oc2cnc3nc(Nc4cc(C(F)(F)F)cn(C)c4=O)n(C)c3c2C#N)ccn1 [Compound 1 Form E, N-(4-((7-cyano-1-methyl-2-((1-methyl-2-oxo-5-(trifluoromethyl)-1,2-dihydropyridin-3-yl)amino)-1H-imidazo[4,5-b]pyridin-6-yl)oxy)pyridin-2-yl)acetamide]
- XRPD Result after drying ([1]; RT, listed as Form E): Form H (some disorder)
